These results are taken from US20230414607A1, “METHODS OF TREATMENT” (BOW RIVER LLC, priority 2017, published 2023).

The conditions of series [1]: cited from earlier work.
For another series, the target named is CYP3A4 (Homo sapiens, UniProt P08684). Particulars: in vivo; cited from earlier work.
The nature of series [2]: AUC and Cmax target safe levels of CYP3A4 substrate drugs (Table 1). Particulars: human. The source says: In various embodiments, the “Target safe levels” are non-limiting examples of the upper limit of fold change or percent of baseline where in some embodiments the benefits of treating the patient for the condition or disease for which the CYP3A4 substrate drug is indicated outweigh the risks associated with the effects of a drug-drug interaction. […] For purposes of the present methods, the blood plasma levels measured during co-administration of the CYP3A4 substrate drug with […] may be used to estimate the posaconazole DDI decay curve, e.g., using equation 1.

Setting [3] is: single 90 min infusion of irinotecan 125 mg/m^2, AUC0-24.
[4] abbreviates: single 90 min infusion of irinotecan 125 mg/m^2.
Setting [5] is: single 90 min infusion of irinotecan 340 mg/m^2, AUC0-24.
Setting [6] is: single 90 min infusion of irinotecan 340 mg/m^2.

Read-outs that look alike come from different tables or passages of the source.

Sequence of CYP3A4 (P08684 whole entry): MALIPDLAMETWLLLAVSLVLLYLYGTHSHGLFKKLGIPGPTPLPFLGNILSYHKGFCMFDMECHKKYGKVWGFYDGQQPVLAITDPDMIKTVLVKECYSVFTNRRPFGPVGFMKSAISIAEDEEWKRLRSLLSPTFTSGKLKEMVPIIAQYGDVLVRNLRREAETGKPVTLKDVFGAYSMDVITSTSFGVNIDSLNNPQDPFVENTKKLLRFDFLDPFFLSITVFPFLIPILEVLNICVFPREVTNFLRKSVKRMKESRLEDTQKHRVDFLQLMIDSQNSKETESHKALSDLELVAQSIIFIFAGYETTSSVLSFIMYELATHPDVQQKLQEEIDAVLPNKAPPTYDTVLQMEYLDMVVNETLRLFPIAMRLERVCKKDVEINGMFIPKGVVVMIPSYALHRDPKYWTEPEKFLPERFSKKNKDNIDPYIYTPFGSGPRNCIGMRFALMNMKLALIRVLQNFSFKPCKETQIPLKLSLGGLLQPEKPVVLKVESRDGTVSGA

Take `COc1cc(Nc2ncc(F)c(Nc3ccc4c(n3)NC(=O)C(C)(C)O4)n2)cc(OC)c1OC` [R406]: in series [1] (in vivo), the “Baseline AUC (% CV)” value was 7080 (±2670) ng*h/mL and the “Baseline Cmax (% CV)” value is reported as 550 (±270) ng/ml.
`CCc1c2c(nc3ccc(O)cc13)-c1cc3c(c(=O)n1C2)COC(=O)[C@]3(O)CC` [SN-38]: the “Baseline AUC (% CV)” value was 229 ± 108 ng·h/mL in series [1] (setting [3]) and 474 ± 245 ng·h/mL in series [1] (setting [5]). Further, the “Baseline Cmax (% CV)” value in series [1] (setting [4]) was 26.3 ± 11.9 ng/mL; in series [1] (setting [6]) it was 56.0 ± 28.2 ng/mL.
Regarding `CO[C@H]1C[C@@H]2CC[C@@H](C)[C@@](O)(O2)C(=O)C(=O)N2CCCC[C@H]2C(=O)O[C@H]([C@H](C)C[C@@H]2CC[C@@H](OCCO)[C@H](OC)C2)CC(=O)[C@H](C)/C=C(\C)[C@@H](O)[C@@H](OC)C(=O)[C@H](C)C[C@H](C)/C=C/C=C/C=C/1C` [everolimus], in series [1] (10 mg everolimus), the “normal baseline AUC: mean AUC0-24±SD at steady state” value is recorded as “about 536±7.7 ng*h/mL” and the “normal baseline Cmax: mean Cmax (% CV), steady state” value is recorded as 59.7±16.9 (21.7%) ng/mL.
As to `CCc1c2c(nc3ccc(OC(=O)N4CCC(N5CCCCC5)CC4)cc13)-c1cc3c(c(=O)n1C2)COC(=O)[C@]3(O)CC` [irinotecan], the “Baseline AUC (% CV)” value in series [1] (setting [3]) was 10,200 ng*h/mL; in series [1] (setting [5]), 20,604 ng*h/mL. Moreover, the “Baseline Cmax (% CV)” value is listed as 1,660 ± 797 ng/ml in series [1] (setting [4]) and 3,392 ± 874 ng/ml in series [1] (setting [6]).
In the case of `CCOc1cc2ncc(C#N)c(Nc3ccc(OCc4ccccn4)c(Cl)c3)c2cc1NC(=O)/C=C/CN(C)C` [neratinib], the entries for the “Baseline AUC (% CV)” value in series [1] (AUC0-24 single dose 180 mg), in series [1] (AUC0-24 single dose 240 mg) and in series [1] (AUC0-24 single dose 320 mg) were 734 ± 291 ng·h/mL, 823 ± 291 ng·h/mL and 1582 ± 800 ng·h/mL, respectively. The “Baseline Cmax (% CV)” value in series [1] (single dose 180 mg) was 65.9 ± 34.7 ng/mL; in series [1] (single dose 240 mg), 75.9 ± 12.9 ng/mL; in series [1] (single dose 320 mg), 118 ± 47.6 ng/mL. Moreover, the “AUC co-administration levels, Fold change” value at CYP3A4 is 5.81 fold. Moreover, the “AUC co-administration levels, Percent of baseline” value at CYP3A4 is reported as 581%. Besides, at CYP3A4, the “Cmax co-administration levels, Fold change” value is recorded as 4.21 fold. Also, the “Cmax co-administration levels, Percent of baseline” value on CYP3A4 is 421%.
In the case of `O=C(NC[C@H]1CN(c2ccc(N3CCOCC3=O)cc2)C(=O)O1)c1ccc(Cl)s1` [rivaroxaban], on CYP3A4, the “AUC co-administration levels, Fold change” value was 1.76 fold; the “AUC co-administration levels, Percent of baseline” value is recorded as 176%; the “Cmax co-administration levels, Fold change” value was 1.56 fold; the “Cmax co-administration levels, Percent of baseline” value is 156%. Besides, in series [2], the “AUC target safe level, Fold change” value is 1.52 fold; the “AUC target safe level, Percent of baseline” value is listed as 152%; the “Cmax target safe level, Percent of baseline” value is listed as 0%.
Turning to `CCc1cc(/C(C)=N/OCc2ccc(C3CCCCC3)c(C(F)(F)F)c2)ccc1CN1CC(C(=O)O)C1` [siponimod], on CYP3A4, the “AUC co-administration levels, Fold change” value is 2 fold and the “AUC co-administration levels, Percent of baseline” value is listed as 200%. In addition, in series [2], the “AUC target safe level, Fold change” value was 10.4 fold and the “AUC target safe level, Percent of baseline” value came out at 1040%.
For the compound `O=C(O[C@H]1CN2CCC1CC2)N1CCc2ccccc2[C@@H]1c1ccccc1` [solifenacin succinate], in series [1] (in vivo, 5 mg), the “normal baseline AUC: mean AUC0-24 (% CV) at steady state” value is “about 463 (37%) ng*h/mL” and the “normal baseline Cmax: mean Cmax (% CV), steady state” value is recorded as 24.01 (30%) ng/mL. In addition, in series [1] (in vivo, 10 mg), the “normal baseline AUC: mean AUC0-24 (% CV) at steady state” value was “about 749 (22%) ng*h/mL” and the “normal baseline Cmax: mean Cmax (% CV), steady state” value is listed as 40.61 (21%) ng/mL.
`Cc1c(C(=O)Nc2ccc(N3C[C@@H](C)O[C@@H](C)C3)nc2)cccc1-c1ccc(OC(F)(F)F)cc1` [sonidegib]: at CYP3A4, the “AUC co-administration levels, Fold change” value is 2.2 fold; the “AUC co-administration levels, Percent of baseline” value was 220%; the “Cmax co-administration levels, Fold change” value was 1.5 fold; the “Cmax co-administration levels, Percent of baseline” value is listed as 150%. In addition, the “Cmax target safe level, Percent of baseline” value in series [2] was found to be 0%.
For the compound `CN1CC(=O)N2[C@H](c3ccc4c(c3)OCO4)c3[nH]c4ccccc4c3C[C@@H]2C1=O` [tadalafil], in series [1] (10 mg tadalafil), the “normal baseline AUC: mean AUC0-∞ (% CV)” value is recorded as “about 3647 (34.0%) μg*h/L” and the “normal baseline Cmax: mean Cmax (% CV)” value is 190 (21.7%) μg/L. For the same compound, in series [1] (20 mg tadalafil), the “normal baseline Cmax: mean Cmax (% CV)” value is recorded as 548 (24.0%) μg/L.
As for `COc1cc2c(cc1O)CCN[C@]21CS[C@@H]2c3c(OC(C)=O)c(C)c4c(c3[C@H](COC1=O)N1[C@@H]2[C@H]2c3c(cc(C)c(OC)c3O)C[C@@H]([C@@H]1O)N2C)OCO4` [trabectedin], the “Baseline AUC (% CV)” value is on record as 12 (±4.8) ng*h/mL in series [1] (AUCinf one dose (24 hr infusion) at 600 ug/m^2), 36 (±16) ng*h/mL in series [1] (AUCinf one dose (24 hr infusion) at 900 ug/m^2), 32 (±13) ng*h/mL in series [1] (AUCinf one dose (24 hr infusion) at 1200 ug/m^2) and 55 (±25) ng*h/mL in series [1] (AUCinf one dose (24 hr infusion) at 1500 ug/m^2). The “Baseline Cmax (% CV)” value in series [1] (One dose (24 hr infusion) at 1500 ug/m^2) is given as 1.8 (±1.1) ng/ml. Besides, the “AUC co-administration levels, Fold change” value at CYP3A4 is recorded as 1.66 fold. Besides, at CYP3A4, the “AUC co-administration levels, Percent of baseline” value was 166%. Moreover, at CYP3A4, the “Cmax co-administration levels, Fold change” value is 1.22 fold. In addition, the “Cmax co-administration levels, Percent of baseline” value at CYP3A4 is reported as 122%.
Regarding `CC[C@@H]1CN(C(=O)NCC(F)(F)F)C[C@@H]1c1cnc2cnc3[nH]ccc3n12` [upadacitinib], the “Baseline AUC (% CV)” value in series [1] (AUCinf single dose at 3 mg) is 103 ± 27.6 ng·h/mL; in series [1] (AUCinf single dose at 6 mg), 160 ± 37.6 ng·h/mL; in series [1] (AUCinf single dose at 12 mg), 331 ± 49.8 ng·h/mL; in series [1] (AUCinf single dose at 24 mg), 615 ± 78.1 ng·h/mL. In addition, the “Baseline Cmax (% CV)” value in series [1] (single dose at 6 mg) is 38.9 ± 9.96 ng/mL; in series [1] (single dose at 12 mg) it was 82.9 ± 12.1 ng/mL.
